Measured values from PubChem BioAssay AID1552 (Sanford-Burnham Center for Chemical Genomics, 2009).
Activity calls are given as the source filed them. The rule behind the calls is not given here.

The compounds below were run against Ubiquitin-conjugating enzyme E2 N (Homo sapiens) (UniProt P61088) (assay: UBE2N binders by NMR, biophysical, purified protein (AID 1552)). Details: NMR binding to purified UBE2N.
Ubiquitin-conjugating enzyme E2 N (Homo sapiens), sequence (P61088 whole entry, looked up): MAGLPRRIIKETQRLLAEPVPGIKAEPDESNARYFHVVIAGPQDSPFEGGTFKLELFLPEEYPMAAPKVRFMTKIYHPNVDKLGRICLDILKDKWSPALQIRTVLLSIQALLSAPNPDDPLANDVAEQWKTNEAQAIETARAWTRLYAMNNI
With Cc1ccc(SCc2cc(=O)n3[nH]cnc3n2)cc1 the Kd was > 4 mM (inactive).
For COCC(=O)Nc1c(C(N)=O)oc2ccccc12, the Kd was > 4 mM (inactive).
CC(=O)N1CCc2ccccc2C1CC(=O)O (stereo unspecified) was tested, and the Kd was > 4 mM (inactive).
For COc1cc2nc(-c3cccs3)oc(=O)c2cc1OC, the Kd was > 4 mM (inactive).
For COc1ccc2c(c1)[nH]c1c(C)nccc12, the Kd was > 4 mM (inactive).
With CC(=O)Nc1ccc(S(=O)(=O)NC2=NCCS2)cc1 the Kd was > 4 mM (inactive).
CCOC(=O)c1sc(SC)c2c1CCCC2O (stereo unspecified) was tested, and the Kd was > 4 mM (inactive).
With Cn1cc(Cl)c(C(=O)NC2CCCC2)n1 the Kd was > 4 mM (inactive).
Cc1ccccc1NC(=S)NCCO was tested, and the Kd was > 4 mM (inactive).
C=C1C2CC[C@@]3(C)[C@H](c4ccoc4)OC(=O)C[C@]13O[C@H]1CC(=O)C(C)(C)[C@H](C(O)C(=O)OC)[C@@]21C (stereo partly specified) was tested, and the Kd was > 4 mM (inactive).
CCNC(CC(=O)Nc1cccc([N+](=O)[O-])c1)C(=O)O (stereo unspecified) was tested, and the Kd was > 4 mM (inactive).
In the case of CSc1nc2[nH]ncc2c(=O)[nH]1, the Kd is reported as > 4 mM (inactive).
CC(Sc1ncn[nH]1)C(=O)O (stereo unspecified) was tested, and the Kd was > 4 mM (inactive).
With O=C(NCN1CCOCC1)c1cnccn1 the Kd was > 4 mM (inactive).
For CC(=O)NC(C)(C)C1CC=C(C)/C(=N\O)C1 (stereo unspecified), the Kd was > 4 mM (inactive).
In the case of CC1(C)CC[C@]2(C)CC[C@]3(C)C(=CCC4[C@@]5(C)CC[C@H](O)C(C)(C)C5CC[C@]43C)C2C1 (stereo partly specified), the Kd is reported as > 4 mM (inactive).
For COc1ccccc1NC(N)=S, the Kd was > 4 mM (inactive).
COC(=O)[C@@H]1OC(=O)C2OC23[C@@]1(C)CCC1[C@]2(C)C(C[C@@H](O)[C@]13C)C(C)(C)[C@H](OC(C)=O)C[C@@H]2OC(C)=O (stereo partly specified) was tested, and the Kd was > 4 mM (inactive).
NC(Cc1c[nH]c2ccccc12)C(=O)O (stereo unspecified) was tested, and the Kd was > 4 mM (inactive).
For OC1CC(c2ccccc2)NC2(CCCC2)C1 (stereo unspecified), the Kd was > 4 mM (inactive).
In the case of CNC(=S)Nc1ncn(Cc2cccc(F)c2)n1, the Kd is reported as > 4 mM (inactive).
For C[C@@H]1CC[C@@]2(OC1)OC1CC3C4CC=C5C[C@@H](O)CC[C@]5(C)C4CC[C@]3(C)C1[C@@H]2C (stereo partly specified), the Kd was > 4 mM (inactive).
With O=C(Cc1cccs1)N1CCOCC1 the Kd was > 4 mM (inactive).
For Cn1nnc2cc(C(=O)NC3=NCCS3)ccc21, the Kd was > 4 mM (inactive).
In the case of Nc1c(S(=O)(=O)c2ccccc2)csc1C(=O)O, the Kd is reported as > 4 mM (inactive).
For c1cncc(C(N2CCOCC2)N2CCOCC2)c1, the Kd was > 4 mM (inactive).
With CN1CCN(CC(=O)N2CCc3ccccc32)CC1 the Kd was > 4 mM (inactive).
In the case of C=C1CCC2C(CC2(C)C)C(=O)CCC1O (stereo unspecified), the Kd is reported as > 4 mM (inactive).
For COc1c(OC)c2occc2c2oc(=O)ccc12, the Kd was > 4 mM (inactive).
O=C(O)c1ccc(N2CCOCC2)cc1 was tested, and the Kd was > 4 mM (inactive).
COc1cccc2onc(N)c12 was tested, and the Kd was > 4 mM (inactive).
In the case of Nc1ccc(OC(F)(F)F)cc1, the Kd is reported as > 4 mM (inactive).
With NC(=O)NC(=O)Nc1ccc(Cl)cc1 the Kd was > 4 mM (inactive).
With Fc1ccc2onc(C3CCNCC3)c2c1 the Kd was > 4 mM (inactive).
With CCOC(=O)C1CCN(Cc2ccccc2)CC1=O (stereo unspecified) the Kd was > 4 mM (inactive).
With O=c1[nH]cc(S(=O)(=O)N2CCc3ccccc32)c(=O)[nH]1 the Kd was > 4 mM (inactive).
In the case of Cc1ccccc1NC(=O)CSc1ccnc(=O)[nH]1, the Kd is reported as > 4 mM (inactive).
With O=C(O)c1csc(-c2cccnc2)n1 the Kd was > 4 mM (inactive).
For O=C(c1cccc(-n2cnnn2)c1)N1CCOCC1, the Kd was > 4 mM (inactive).
O=c1c2ccccc2nc2n1CCC2O (stereo unspecified) was tested, and the Kd was > 4 mM (inactive).
In the case of CS(=O)(=O)N1CCN(c2ccccc2F)CC1, the Kd is reported as > 4 mM (inactive).
For O=c1ccn([C@@H]2O[C@H](COP(=O)(O)OP(=O)(O)OP(=O)(O)O)[C@@H](O)[C@H]2O)c(=O)[nH]1, the Kd was > 4 mM (inactive).
In the case of CCOc1ccc(C(=O)c2ccc(O)c(O)c2O)cc1, the Kd is reported as > 4 mM (inactive).
With O=C(O)CSCc1ccc(Cl)cc1 the Kd was > 4 mM (inactive).
O=C(O)CCN1CCc2ccccc2C1c1ccncc1 (stereo unspecified) was tested, and the Kd was > 4 mM (inactive).
With COc1ccccc1NC(=O)c1ccc(Br)o1 the Kd was > 4 mM (inactive).
